Tests used:
Assay type in all cases: functional
Staphylococcus aureus [1] = test: Antibacterial activity against methicillin-resistant Staphylococcus aureus 88 assessed as bacterial growth inhibition in presence of 50 ug/ml calcium ions by CLSI protocol based broth microdilution method
Staphylococcus aureus [2] = test: Antibacterial activity against methicillin-resistant Staphylococcus aureus 14 assessed as bacterial growth inhibition in presence of 50 ug/ml calcium ions by CLSI protocol based broth microdilution method
Staphylococcus aureus [3] = test: Antibacterial activity against methicillin-resistant Staphylococcus aureus 11 assessed as bacterial growth inhibition in presence of 50 ug/ml calcium ions by CLSI protocol based broth microdilution method
Staphylococcus aureus [4] = test: Antibacterial activity against methicillin-resistant Staphylococcus aureus 86 assessed as bacterial growth inhibition in presence of 50 ug/ml calcium ions by CLSI protocol based broth microdilution method
Enterococcus [5] = test: Antibacterial activity against Enterococcus 60 assessed as bacterial growth inhibition in presence of 50 ug/ml calcium ions by CLSI protocol based broth microdilution method
Enterococcus faecalis [6] = test: Antibacterial activity against Streptococcus faecalis assessed as bacterial growth inhibition in presence of 50 ug/ml calcium ions by CLSI protocol based broth microdilution method
Enterococcus [7] = test: Antibacterial activity against Enterococcus 6 assessed as bacterial growth inhibition in presence of 50 ug/ml calcium ions by CLSI protocol based broth microdilution method
Enterococcus faecalis [8] = test: Antibacterial activity against Enterococcus faecalis ATCC 29212 assessed as bacterial growth inhibition in presence of 50 ug/ml calcium ions by CLSI protocol based broth microdilution method
Staphylococcus aureus [9] = test: Antibacterial activity against Staphylococcus aureus ATCC 29213 assessed as bacterial growth inhibition in presence of 50 ug/ml calcium ions by CLSI protocol based broth microdilution method

Row | Structure (SMILES) | MIC (Staphylococcus aureus [1]) | MIC (Staphylococcus aureus [2]) | MIC (Staphylococcus aureus [3]) | MIC (Staphylococcus aureus [4]) | MIC (Enterococcus [5]) | MIC (Enterococcus faecalis [6]) | MIC (Enterococcus [7]) | MIC (Enterococcus faecalis [8]) | MIC (Staphylococcus aureus [9])
1 | CCCCCCCCCC(=O)N[C@@H](Cc1c[nH]c2ccccc12)C(=O)N[C@@H](C)C(=O)N[C@@H](CC(=O)O)C(=O)N[C@@H]1C(=O)NCC(=O)N[C@@H](CCCN)C(=O)N[C@@H](CC(=O)O)C(=O)N[C@H](C)C(=O)N[C@@H](CC(=O)O)C(=O)NCC(=O)N[C@H](CO)C(=O)N[C@@H]([C@@H](C)CC(=O)O)C(=O)N[C@@H](CC(=O)c2ccccc2N)C(=O)O[C@@H]1C | 16 µg/mL | ≥ 32 µg/mL | ≥ 32 µg/mL | ≥ 32 µg/mL | 32 µg/mL | 16 µg/mL | 64 µg/mL | 64 µg/mL | ≥ 32 µg/mL
2 | CCCCCCCCCC(=O)N[C@@H](Cc1c[nH]c2ccccc12)C(=O)N[C@@H](CC(N)=O)C(=O)N[C@@H](CC(=O)O)C(=O)N[C@@H]1C(=O)NCC(=O)N[C@@H](Cc2ccccc2)C(=O)N[C@@H](CC(=O)O)C(=O)N[C@H](C)C(=O)N[C@@H](CC(=O)O)C(=O)NCC(=O)N[C@H](CO)C(=O)N[C@@H]([C@@H](C)CC(=O)O)C(=O)N[C@@H](CC(=O)c2ccccc2N)C(=O)O[C@@H]1C | 16 µg/mL | ≥ 32 µg/mL | ≥ 32 µg/mL | 16 µg/mL | ≥ 32 µg/mL | ≥ 32 µg/mL | ≥ 32 µg/mL | ≥ 32 µg/mL | 16 µg/mL
3 | CCCCCCCCCC(=O)N[C@@H](Cc1cccc2ccccc12)C(=O)N[C@@H](CC(N)=O)C(=O)N[C@@H](CC(=O)O)C(=O)N[C@@H]1C(=O)NCC(=O)N[C@@H](CCCN)C(=O)N[C@@H](CC(=O)O)C(=O)N[C@H](C)C(=O)N[C@@H](CC(=O)O)C(=O)NCC(=O)N[C@H](CO)C(=O)N[C@@H]([C@@H](C)CC(=O)O)C(=O)N[C@@H](CC(=O)c2ccccc2N)C(=O)O[C@@H]1C | 0.125 µg/mL | 0.25 µg/mL | 1 µg/mL | 0.25 µg/mL | 2 µg/mL | 0.5 µg/mL | 2 µg/mL | 2 µg/mL | 0.25 µg/mL
4 | CCCCCCCCCC(=O)N[C@@H](Cc1c[nH]c2ccccc12)C(=O)N[C@@H](CC(N)=O)C(=O)N[C@@H](CC(=O)O)C(=O)N[C@@H]1C(=O)NCC(=O)N[C@@H](CCCN)C(=O)N[C@@H](CC(=O)O)C(=O)N[C@H](C)C(=O)N[C@@H]([C@H](C)CC(=O)O)C(=O)NCC(=O)N[C@H](CO)C(=O)N[C@@H](CC(=O)O)C(=O)N[C@@H](CC(=O)c2ccccc2N)C(=O)O[C@@H]1C | ≥ 32 µg/mL | ≥ 32 µg/mL | ≥ 32 µg/mL | ≥ 32 µg/mL | ≥ 32 µg/mL | ≥ 32 µg/mL | ≥ 32 µg/mL | ≥ 32 µg/mL | ≥ 32 µg/mL
5 | CCCCCCCCCC(=O)N[C@@H](Cc1c[nH]c2ccccc12)C(=O)N[C@@H](CC(N)=O)C(=O)N[C@@H](CC(=O)O)C(=O)N[C@@H]1C(=O)NCC(=O)N[C@@H]([C@@H](C)O)C(=O)N[C@@H](CC(=O)O)C(=O)N[C@H](C)C(=O)N[C@@H](CC(=O)O)C(=O)NCC(=O)N[C@H](CO)C(=O)N[C@@H]([C@@H](C)CC(=O)O)C(=O)N[C@@H](CC(=O)c2ccccc2N)C(=O)O[C@@H]1C | 2 µg/mL | 16 µg/mL | 16 µg/mL | 2 µg/mL | ≥ 32 µg/mL | ≥ 32 µg/mL | ≥ 32 µg/mL | ≥ 32 µg/mL | 2 µg/mL
6 | CCCCCCCCCC(=O)N[C@@H](Cc1c[nH]c2ccccc12)C(=O)N[C@@H](CC(N)=O)C(=O)N[C@@H](CC(=O)O)C(=O)N[C@@H]1C(=O)NCC(=O)N[C@@H](CCCN)C(=O)N[C@@H](CCC(=O)O)C(=O)N[C@H](C)C(=O)N[C@@H](CCC(=O)O)C(=O)NCC(=O)N[C@H](CO)C(=O)N[C@@H]([C@@H](C)CC(=O)O)C(=O)N[C@@H](CC(=O)c2ccccc2N)C(=O)O[C@@H]1C | ≥ 32 µg/mL | ≥ 32 µg/mL | ≥ 32 µg/mL | ≥ 32 µg/mL | ≥ 32 µg/mL | ≥ 32 µg/mL | ≥ 32 µg/mL | ≥ 32 µg/mL | ≥ 32 µg/mL
7 | CCCCCCCCCC(=O)N[C@@H](Cc1c[nH]c2ccccc12)C(=O)N[C@@H](CC(N)=O)C(=O)N[C@@H](CC(=O)O)C(=O)N[C@@H]1C(=O)NCC(=O)N[C@@H](CCC(=O)O)C(=O)N[C@@H](CC(=O)O)C(=O)N[C@H](C)C(=O)N[C@@H](CC(=O)O)C(=O)NCC(=O)N[C@H](CO)C(=O)N[C@@H]([C@@H](C)CC(=O)O)C(=O)N[C@@H](CC(=O)c2ccccc2N)C(=O)O[C@@H]1C | 16 µg/mL | ≥ 32 µg/mL | ≥ 32 µg/mL | ≥ 32 µg/mL | ≥ 32 µg/mL | ≥ 32 µg/mL | ≥ 32 µg/mL | ≥ 32 µg/mL | 16 µg/mL
8 | CCCCCCCCCC(=O)N[C@@H](Cc1ccc2ccccc2c1)C(=O)N[C@@H](CC(N)=O)C(=O)N[C@@H](CC(=O)O)C(=O)N[C@@H]1C(=O)NCC(=O)N[C@@H](CCCN)C(=O)N[C@@H](CC(=O)O)C(=O)N[C@H](C)C(=O)N[C@@H](CC(=O)O)C(=O)NCC(=O)N[C@H](CO)C(=O)N[C@@H]([C@@H](C)CC(=O)O)C(=O)N[C@@H](CC(=O)c2ccccc2N)C(=O)O[C@@H]1C | 0.125 µg/mL | 0.125 µg/mL | 0.5 µg/mL | 0.06 µg/mL | 0.5 µg/mL | 0.25 µg/mL | 4 µg/mL | 1 µg/mL | 0.25 µg/mL
9 | CCCCCCCCCC(=O)N[C@@H](Cc1c[nH]c2ccccc12)C(=O)N[C@@H](CC(N)=O)C(=O)N[C@@H](CC(=O)O)C(=O)N[C@@H]1C(=O)NCC(=O)N[C@@H](CC(=O)O)C(=O)N[C@@H](CC(=O)O)C(=O)N[C@H](C)C(=O)N[C@@H](CC(=O)O)C(=O)NCC(=O)N[C@H](CO)C(=O)N[C@@H]([C@@H](C)CC(=O)O)C(=O)N[C@@H](CC(=O)c2ccccc2N)C(=O)O[C@@H]1C | 8 µg/mL | ≥ 32 µg/mL | ≥ 32 µg/mL | 16 µg/mL | ≥ 32 µg/mL | ≥ 32 µg/mL | ≥ 32 µg/mL | ≥ 32 µg/mL | 16 µg/mL
10 | CCCCCCCCCC(=O)N[C@@H](Cc1c[nH]c2ccccc12)C(=O)N[C@@H](CC(N)=O)C(=O)N[C@@H](CC(=O)O)C(=O)N[C@@H]1C(=O)NCC(=O)N[C@@H](CC(N)=O)C(=O)N[C@@H](CC(=O)O)C(=O)N[C@H](C)C(=O)N[C@@H](CC(=O)O)C(=O)NCC(=O)N[C@H](CO)C(=O)N[C@@H]([C@@H](C)CC(=O)O)C(=O)N[C@@H](CC(=O)c2ccccc2N)C(=O)O[C@@H]1C | ≥ 32 µg/mL | ≥ 32 µg/mL | ≥ 32 µg/mL | ≥ 32 µg/mL | ≥ 32 µg/mL | ≥ 32 µg/mL | ≥ 32 µg/mL | ≥ 32 µg/mL | ≥ 32 µg/mL
11 | CCCCCCCCCC(=O)N[C@@H](Cc1c[nH]c2ccccc12)C(=O)N[C@@H](CC(N)=O)C(=O)N[C@@H](CC(=O)O)C(=O)N[C@@H]1C(=O)NCC(=O)N[C@@H](CCCN)C(=O)N[C@@H](C)C(=O)N[C@H](C)C(=O)N[C@@H](CC(=O)O)C(=O)NCC(=O)N[C@H](CO)C(=O)N[C@@H]([C@@H](C)CC(=O)O)C(=O)N[C@@H](CC(=O)c2ccccc2N)C(=O)O[C@@H]1C | ≥ 64 µg/mL | ≥ 64 µg/mL | ≥ 64 µg/mL | ≥ 64 µg/mL | ≥ 64 µg/mL | ≥ 64 µg/mL | ≥ 64 µg/mL | ≥ 64 µg/mL | ≥ 64 µg/mL
12 | CCCCCCCCCC(=O)N[C@@H](Cc1c[nH]c2ccccc12)C(=O)N[C@@H](CC(N)=O)C(=O)N[C@@H](CC(=O)O)C(=O)N[C@@H]1C(=O)NCC(=O)N[C@@H](Cc2c[nH]c3ccccc23)C(=O)N[C@@H](CC(=O)O)C(=O)N[C@H](C)C(=O)N[C@@H](CC(=O)O)C(=O)NCC(=O)N[C@H](CO)C(=O)N[C@@H]([C@@H](C)CC(=O)O)C(=O)N[C@@H](CC(=O)c2ccccc2N)C(=O)O[C@@H]1C | 2 µg/mL | 1 µg/mL | 2 µg/mL | 4 µg/mL | ≥ 32 µg/mL | 2 µg/mL | ≥ 32 µg/mL | ≥ 32 µg/mL | 4 µg/mL
13 | C[C@H]1NC(=O)[C@H](CC(=O)O)NC(=O)[C@H](CCCN)NC(=O)CNC(=O)[C@@H](NC(=O)[C@H](CC(=O)O)NC(=O)[C@H](CC(N)=O)NC(=O)[C@H](Cc2c[nH]c3ccccc23)NC(=O)c2ccc(C#CC#Cc3ccccc3)cc2)[C@@H](C)OC(=O)[C@H](CC(=O)c2ccccc2N)NC(=O)[C@H]([C@@H](C)CC(=O)O)NC(=O)[C@@H](CO)NC(=O)CNC(=O)[C@H](CC(=O)O)NC1=O | 0.5 µg/mL | 0.5 µg/mL | 1 µg/mL | 0.5 µg/mL | 1 µg/mL | 1 µg/mL | 4 µg/mL | 1 µg/mL | 0.5 µg/mL
14 | CCCCCCCCCC(=O)N[C@@H](Cc1c[nH]c2ccccc12)C(=O)N[C@@H](CC(N)=O)C(=O)N[C@@H](CC(=O)O)C(=O)N[C@@H]1C(=O)NCC(=O)N[C@@H](CC(C)C)C(=O)N[C@@H](CC(=O)O)C(=O)N[C@H](C)C(=O)N[C@@H](CC(=O)O)C(=O)NCC(=O)N[C@H](CO)C(=O)N[C@@H]([C@@H](C)CC(=O)O)C(=O)N[C@@H](CC(=O)c2ccccc2N)C(=O)O[C@@H]1C | 2 µg/mL | 0.5 µg/mL | 1 µg/mL | 4 µg/mL | 16 µg/mL | ≥ 32 µg/mL | ≥ 32 µg/mL | ≥ 32 µg/mL | 4 µg/mL
15 | CCCCCCCCCC(=O)N[C@@H](Cc1c[nH]c2ccccc12)C(=O)N[C@@H](CC(N)=O)C(=O)N[C@@H](C)C(=O)N[C@@H]1C(=O)NCC(=O)N[C@@H](CCCN)C(=O)N[C@@H](CC(=O)O)C(=O)N[C@H](C)C(=O)N[C@@H](CC(=O)O)C(=O)NCC(=O)N[C@H](CO)C(=O)N[C@@H]([C@@H](C)CC(=O)O)C(=O)N[C@@H](CC(=O)c2ccccc2N)C(=O)O[C@@H]1C | 16 µg/mL | ≥ 32 µg/mL | ≥ 32 µg/mL | 16 µg/mL | ≥ 32 µg/mL | ≥ 32 µg/mL | ≥ 32 µg/mL | ≥ 32 µg/mL | 16 µg/mL

From ChEMBL document CHEMBL4619795, “Establishing the Structure-Activity Relationship of Daptomycin” (ACS Med Chem Lett, 2020)
